Structures are written as SMILES.

Data set [1] concerns the target T1, Homeodomain-interacting protein kinase 4 (Homo sapiens) (UniProt Q8NE63).
T1 sequence (whole entry): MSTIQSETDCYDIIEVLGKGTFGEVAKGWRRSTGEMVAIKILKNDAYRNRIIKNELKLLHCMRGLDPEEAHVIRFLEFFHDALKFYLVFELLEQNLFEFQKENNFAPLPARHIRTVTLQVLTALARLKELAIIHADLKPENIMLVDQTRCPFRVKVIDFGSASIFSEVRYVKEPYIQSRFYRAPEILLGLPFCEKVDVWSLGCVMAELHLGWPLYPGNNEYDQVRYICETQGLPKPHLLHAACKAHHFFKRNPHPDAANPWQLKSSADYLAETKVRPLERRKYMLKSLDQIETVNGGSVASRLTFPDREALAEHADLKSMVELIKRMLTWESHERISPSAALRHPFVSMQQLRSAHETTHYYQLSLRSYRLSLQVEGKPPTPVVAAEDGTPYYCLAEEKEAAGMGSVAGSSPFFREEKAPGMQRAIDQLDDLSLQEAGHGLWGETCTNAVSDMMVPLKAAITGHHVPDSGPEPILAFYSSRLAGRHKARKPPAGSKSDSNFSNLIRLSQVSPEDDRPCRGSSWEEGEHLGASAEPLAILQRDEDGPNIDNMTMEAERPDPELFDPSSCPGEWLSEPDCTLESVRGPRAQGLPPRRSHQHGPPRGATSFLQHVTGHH
Kind of data set: Inhibition of HIPK4 (unknown origin) assessed as remaining activity at 1 uM by Kinome scan method relative to control.

Data set [2] has as its target Serine/threonine-protein kinase N2 (Homo sapiens) (UniProt Q16513). As to the kind of experiment: Inhibition of PKN2 (unknown origin) assessed as remaining activity at 1 uM by Kinome scan method relative to control.
In data set [3] the target is Death-associated protein kinase 2 (Homo sapiens) (UniProt Q9UIK4). Kind of data set: Inhibition of human DAPK2 assessed as residual activity at 1 uM using RB-S6P as substrate in presence of 33P-ATP by ProQinase assay relative to control.
Chain of Death-associated protein kinase 2 (Homo sapiens) (Q9UIK4 whole entry, looked up): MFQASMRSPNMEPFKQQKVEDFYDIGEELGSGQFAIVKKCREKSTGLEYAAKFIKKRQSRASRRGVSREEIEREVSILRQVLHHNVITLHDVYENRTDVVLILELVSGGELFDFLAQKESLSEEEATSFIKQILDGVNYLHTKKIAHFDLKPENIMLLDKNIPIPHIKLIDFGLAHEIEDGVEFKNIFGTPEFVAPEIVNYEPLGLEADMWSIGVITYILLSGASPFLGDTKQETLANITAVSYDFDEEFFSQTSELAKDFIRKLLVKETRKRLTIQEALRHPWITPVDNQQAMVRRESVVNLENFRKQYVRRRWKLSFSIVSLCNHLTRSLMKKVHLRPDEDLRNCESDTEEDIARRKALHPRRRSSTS
Data set [4] has as its target Tyrosine-protein kinase ABL1 (Homo sapiens) (UniProt P00519). Kind of data set: Inhibition of human ABL1 assessed as residual activity at 1 uM using poly(Ala,Glu,Lys,Tyr)6:2:5:1 as substrate in presence of 33P-ATP by ProQinase assay relative to control.
For data set [5], the target named is CDK7/Cyclin H/MNAT1 (Homo sapiens) (UniProt P51946+P50613+P51948). As to the kind of experiment: Inhibition of human CDK7/CyclinH/MAT1 assessed as residual activity at 1 uM using RBER-CHKtide as substrate in presence of 33P-ATP by ProQinase assay relative to control. It counts as protein-complex assay.
Data set [6] deals with Tyrosine-protein kinase Lck (Homo sapiens) (UniProt P06239). As to the kind of experiment: Inhibition of LCK (unknown origin) assessed as remaining activity at 1 uM by Kinome scan method relative to control.
Chain of Tyrosine-protein kinase Lck (Homo sapiens) (P06239 2-509 limits assumed): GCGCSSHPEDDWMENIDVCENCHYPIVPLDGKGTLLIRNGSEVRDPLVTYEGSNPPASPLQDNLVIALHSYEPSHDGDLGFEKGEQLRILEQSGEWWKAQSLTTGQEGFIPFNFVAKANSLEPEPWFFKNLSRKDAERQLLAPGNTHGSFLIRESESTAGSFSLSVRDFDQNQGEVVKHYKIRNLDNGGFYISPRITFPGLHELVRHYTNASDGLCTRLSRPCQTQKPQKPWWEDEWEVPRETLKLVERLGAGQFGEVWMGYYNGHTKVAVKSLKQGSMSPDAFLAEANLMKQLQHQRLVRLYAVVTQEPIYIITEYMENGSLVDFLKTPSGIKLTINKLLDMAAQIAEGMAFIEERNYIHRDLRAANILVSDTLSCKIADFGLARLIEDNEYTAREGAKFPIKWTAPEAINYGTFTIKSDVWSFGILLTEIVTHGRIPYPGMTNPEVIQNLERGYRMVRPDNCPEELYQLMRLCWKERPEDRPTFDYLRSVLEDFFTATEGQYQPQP
The test system of data set [7] is Serine/threonine-protein kinase B-raf (Homo sapiens), P15056 [V600E]. Kind of data set: Inhibition of BRAF V600E mutant (unknown origin) assessed as remaining activity at 1 uM by Kinome scan method relative to control.
Data set [8] has as its target Focal adhesion kinase 1 (Homo sapiens) (UniProt Q05397). Kind of data set: Inhibition of human FAK (2 to 1052 residues) assessed as residual activity at 1 uM using polyEY as substrate in presence of 33P-ATP by ProQinase assay relative to control.
Data set [9] addresses G protein-coupled receptor kinase 4 (Homo sapiens) (UniProt P32298). Kind of data set: Inhibition of human GRK4 assessed as residual activity at 1 uM using casein as substrate in presence of 33P-ATP by ProQinase assay relative to control.
The target of a further data set is CYP2C19 (Homo sapiens, UniProt P33261). Kind of data set: Inhibition of CYP2C19 (unknown origin) at 10 uM relative to control. It counts as ADME.
For data set [10], the target named is LIM domain kinase 2 (Homo sapiens) (UniProt P53671). Kind of data set: Inhibition of human LIMK2 assessed as residual activity at 1 uM using CFL1 as substrate in presence of 33P-ATP by ProQinase assay relative to control.
Chain of LIM domain kinase 2 (Homo sapiens) (P53671 whole entry, looked up, the tested form may be a part): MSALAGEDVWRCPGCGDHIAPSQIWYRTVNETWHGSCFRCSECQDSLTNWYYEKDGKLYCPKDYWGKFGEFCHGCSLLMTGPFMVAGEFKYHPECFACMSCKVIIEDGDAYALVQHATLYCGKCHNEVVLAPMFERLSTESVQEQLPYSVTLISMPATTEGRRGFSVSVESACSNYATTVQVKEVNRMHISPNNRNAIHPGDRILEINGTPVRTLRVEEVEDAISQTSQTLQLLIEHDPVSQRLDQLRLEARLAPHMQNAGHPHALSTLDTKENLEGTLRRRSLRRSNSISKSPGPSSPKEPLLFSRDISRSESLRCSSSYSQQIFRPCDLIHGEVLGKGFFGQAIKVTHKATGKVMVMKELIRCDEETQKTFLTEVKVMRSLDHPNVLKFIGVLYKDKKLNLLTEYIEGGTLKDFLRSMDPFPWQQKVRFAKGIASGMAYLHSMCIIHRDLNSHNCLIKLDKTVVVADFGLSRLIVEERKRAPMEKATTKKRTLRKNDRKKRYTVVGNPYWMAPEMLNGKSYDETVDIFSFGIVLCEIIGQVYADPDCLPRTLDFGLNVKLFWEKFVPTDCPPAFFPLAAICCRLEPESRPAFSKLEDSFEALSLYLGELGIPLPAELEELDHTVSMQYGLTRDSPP
The target of data set [11] is Rhodopsin kinase GRK7 (Homo sapiens) (UniProt Q8WTQ7). Kind of data set: Inhibition of human GRK7 assessed as residual activity at 1 uM using casein as substrate in presence of 33P-ATP by ProQinase assay relative to control.
Data set [12] deals with Dual specificity protein kinase CLK1 (Homo sapiens) (UniProt P49759). As to the kind of experiment: Inhibition of human CLK1 assessed as residual activity at 1 uM using autophos as substrate in presence of 33P-ATP by ProQinase assay relative to control.
The target of data set [13] is Serine/threonine-protein kinase Sgk1 (Homo sapiens) (UniProt O00141). As to the kind of experiment: Inhibition of human SGK1 assessed as residual activity at 1 uM using RBER-GSK3(14-27) as substrate in presence of 33P-ATP by ProQinase assay relative to control.
In data set [14] the target is Eukaryotic translation initiation factor 2-alpha kinase 3 (Homo sapiens) (UniProt Q9NZJ5). Kind of data set: Inhibition of human EIF2AK3 assessed as residual activity at 1 uM using casein as substrate in presence of 33P-ATP by ProQinase assay relative to control.
Chain of Eukaryotic translation initiation factor 2-alpha kinase 3 (Homo sapiens) (Q9NZJ5 whole entry): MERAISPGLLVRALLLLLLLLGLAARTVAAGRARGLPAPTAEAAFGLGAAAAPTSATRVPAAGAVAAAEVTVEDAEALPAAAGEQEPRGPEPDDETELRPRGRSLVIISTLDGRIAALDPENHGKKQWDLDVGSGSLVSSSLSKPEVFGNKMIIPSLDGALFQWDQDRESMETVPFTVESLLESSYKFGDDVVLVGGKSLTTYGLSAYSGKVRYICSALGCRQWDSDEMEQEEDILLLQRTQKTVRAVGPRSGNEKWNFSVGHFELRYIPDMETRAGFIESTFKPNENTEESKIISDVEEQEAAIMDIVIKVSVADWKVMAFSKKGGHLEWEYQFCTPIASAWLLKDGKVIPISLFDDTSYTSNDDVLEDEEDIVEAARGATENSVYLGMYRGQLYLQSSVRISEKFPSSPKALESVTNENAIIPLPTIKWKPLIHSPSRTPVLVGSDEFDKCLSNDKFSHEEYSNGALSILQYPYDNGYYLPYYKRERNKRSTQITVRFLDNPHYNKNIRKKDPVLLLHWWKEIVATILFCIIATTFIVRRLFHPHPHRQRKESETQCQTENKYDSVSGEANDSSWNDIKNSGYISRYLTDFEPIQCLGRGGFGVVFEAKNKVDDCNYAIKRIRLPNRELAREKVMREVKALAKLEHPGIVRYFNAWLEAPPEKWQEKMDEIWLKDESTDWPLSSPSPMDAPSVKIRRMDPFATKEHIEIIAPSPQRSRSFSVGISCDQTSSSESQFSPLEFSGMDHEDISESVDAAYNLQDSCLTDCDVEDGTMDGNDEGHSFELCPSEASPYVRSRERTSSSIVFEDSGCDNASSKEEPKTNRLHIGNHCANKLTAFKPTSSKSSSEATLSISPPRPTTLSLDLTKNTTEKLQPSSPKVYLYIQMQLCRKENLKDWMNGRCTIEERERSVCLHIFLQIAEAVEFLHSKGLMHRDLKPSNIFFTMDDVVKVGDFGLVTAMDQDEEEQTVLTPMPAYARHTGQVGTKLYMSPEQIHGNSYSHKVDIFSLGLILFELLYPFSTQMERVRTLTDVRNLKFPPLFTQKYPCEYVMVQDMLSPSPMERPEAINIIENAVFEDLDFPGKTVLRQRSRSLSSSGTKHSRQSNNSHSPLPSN
In data set [15] the target is High affinity nerve growth factor receptor (Homo sapiens) (UniProt P04629). Kind of data set: Inhibition of TRKA (unknown origin) assessed as remaining activity at 1 uM by Kinome scan method relative to control.
Chain of High affinity nerve growth factor receptor (Homo sapiens) (P04629 33-796 limits assumed): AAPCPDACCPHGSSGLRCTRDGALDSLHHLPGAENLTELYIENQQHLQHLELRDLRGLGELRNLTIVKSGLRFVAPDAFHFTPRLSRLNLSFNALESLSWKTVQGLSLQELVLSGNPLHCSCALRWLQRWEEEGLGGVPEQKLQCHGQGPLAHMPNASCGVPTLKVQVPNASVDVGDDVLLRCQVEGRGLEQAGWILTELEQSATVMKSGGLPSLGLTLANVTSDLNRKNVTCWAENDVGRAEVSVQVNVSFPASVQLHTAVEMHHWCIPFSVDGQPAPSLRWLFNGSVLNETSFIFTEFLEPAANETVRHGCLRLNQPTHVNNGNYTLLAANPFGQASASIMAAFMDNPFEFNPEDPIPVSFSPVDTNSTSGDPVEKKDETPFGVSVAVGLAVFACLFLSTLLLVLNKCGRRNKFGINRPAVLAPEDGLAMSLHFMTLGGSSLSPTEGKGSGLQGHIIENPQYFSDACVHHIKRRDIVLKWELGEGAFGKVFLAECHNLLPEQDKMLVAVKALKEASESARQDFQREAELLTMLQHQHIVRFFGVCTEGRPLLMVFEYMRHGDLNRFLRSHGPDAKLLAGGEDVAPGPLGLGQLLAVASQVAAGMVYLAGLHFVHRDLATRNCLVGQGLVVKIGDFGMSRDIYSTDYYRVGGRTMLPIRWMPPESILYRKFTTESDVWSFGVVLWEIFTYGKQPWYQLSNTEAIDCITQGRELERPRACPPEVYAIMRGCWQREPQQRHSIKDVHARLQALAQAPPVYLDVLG
In data set [16] the target is Platelet-derived growth factor receptor beta (Homo sapiens) (UniProt P09619). As to the kind of experiment: Inhibition of human PDGFRbeta assessed as residual activity at 1 uM using poly(Ala,Glu,Lys,Tyr) as substrate in presence of 33P-ATP by ProQinase assay relative to control.
For data set [17], the target named is Serine/threonine-protein kinase PAK 2 (Homo sapiens) (UniProt Q13177). Kind of data set: Inhibition of human PAK2 assessed as residual activity at 1 uM using bio-4xCHKT as substrate in presence of 33P-ATP by ProQinase assay relative to control.
Data set [18] deals with Activin receptor type-1 (Homo sapiens) (UniProt Q04771). Kind of data set: Inhibition of human ACVR1 assessed as residual activity at 1 uM using RBER-GSK3(14-27) as substrate in presence of 33P-ATP by ProQinase assay relative to control.
Data set [19] concerns the target Activin receptor type-1B (Homo sapiens) (UniProt P36896). Kind of data set: Inhibition of human ACVR1B assessed as residual activity at 1 uM using RBER-CHKtide as substrate in presence of 33P-ATP by ProQinase assay relative to control.
The target in data set [20] is Serine/threonine-protein kinase pim-3 (Homo sapiens) (UniProt Q86V86). As to the kind of experiment: Inhibition of PIM3 (unknown origin) assessed as remaining activity at 1 uM by Kinome scan method relative to control.
Data set [21] can be described thus: Anti-inflammatory activity against human derived medium respond PBMC cells assessed as inhibition in stimulated TNF-alpha cytokine release incubated for 2 hrs in the presence of LPS/SEB/aCD28 by Luminex based sandwich immunoassay. It counts as functional, cell-based.
Data set [22] concerns the target Tyrosine-protein kinase ZAP-70 (Homo sapiens) (UniProt P43403). As to the kind of experiment: Inhibition of ZAP70 (unknown origin) assessed as remaining activity at 1 uM by Kinome scan method relative to control.

Chain of Serine/threonine-protein kinase N2 (Homo sapiens) (Q16513 whole entry, looked up): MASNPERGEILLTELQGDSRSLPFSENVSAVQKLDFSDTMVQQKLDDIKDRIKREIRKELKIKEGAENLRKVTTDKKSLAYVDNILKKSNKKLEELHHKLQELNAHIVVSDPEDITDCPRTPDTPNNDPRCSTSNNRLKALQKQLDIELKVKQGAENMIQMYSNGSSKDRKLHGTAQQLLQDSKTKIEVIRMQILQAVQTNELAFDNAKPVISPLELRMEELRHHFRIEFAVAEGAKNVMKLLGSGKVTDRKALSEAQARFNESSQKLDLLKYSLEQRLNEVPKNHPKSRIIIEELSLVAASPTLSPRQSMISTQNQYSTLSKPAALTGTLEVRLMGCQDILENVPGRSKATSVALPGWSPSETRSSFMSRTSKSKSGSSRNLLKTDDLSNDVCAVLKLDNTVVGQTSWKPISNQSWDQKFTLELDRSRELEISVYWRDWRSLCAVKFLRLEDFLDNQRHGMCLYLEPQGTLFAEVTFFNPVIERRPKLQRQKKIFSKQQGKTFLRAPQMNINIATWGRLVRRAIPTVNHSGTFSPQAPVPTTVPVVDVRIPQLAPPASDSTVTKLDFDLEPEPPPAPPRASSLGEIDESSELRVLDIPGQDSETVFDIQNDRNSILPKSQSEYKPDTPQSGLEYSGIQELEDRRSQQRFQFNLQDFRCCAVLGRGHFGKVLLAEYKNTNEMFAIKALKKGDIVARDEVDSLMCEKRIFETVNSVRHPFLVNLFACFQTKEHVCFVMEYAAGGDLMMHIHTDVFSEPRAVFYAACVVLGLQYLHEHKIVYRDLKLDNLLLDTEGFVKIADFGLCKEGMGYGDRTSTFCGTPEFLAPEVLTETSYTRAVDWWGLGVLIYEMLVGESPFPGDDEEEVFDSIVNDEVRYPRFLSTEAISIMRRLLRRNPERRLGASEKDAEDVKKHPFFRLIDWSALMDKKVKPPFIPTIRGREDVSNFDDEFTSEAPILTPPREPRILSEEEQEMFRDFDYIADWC
Chain of G protein-coupled receptor kinase 4 (Homo sapiens) (P32298 whole entry, looked up): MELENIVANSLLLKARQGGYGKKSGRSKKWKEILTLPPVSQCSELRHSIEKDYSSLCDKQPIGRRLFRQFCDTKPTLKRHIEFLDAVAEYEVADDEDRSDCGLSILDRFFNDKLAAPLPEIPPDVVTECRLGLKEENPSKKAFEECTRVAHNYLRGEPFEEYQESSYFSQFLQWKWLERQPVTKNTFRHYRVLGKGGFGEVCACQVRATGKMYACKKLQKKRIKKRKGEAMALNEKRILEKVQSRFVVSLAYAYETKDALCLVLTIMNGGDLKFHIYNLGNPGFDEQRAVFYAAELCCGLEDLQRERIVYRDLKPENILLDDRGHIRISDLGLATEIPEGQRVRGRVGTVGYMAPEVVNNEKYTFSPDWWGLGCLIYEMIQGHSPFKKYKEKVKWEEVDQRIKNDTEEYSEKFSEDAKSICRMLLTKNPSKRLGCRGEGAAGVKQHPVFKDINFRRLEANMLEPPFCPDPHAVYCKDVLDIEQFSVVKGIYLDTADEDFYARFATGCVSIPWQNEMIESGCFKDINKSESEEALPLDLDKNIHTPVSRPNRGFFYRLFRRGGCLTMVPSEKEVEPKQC

Regarding `Nc1ccccc1Nc1ccc2c(c1)CCc1ccccc1C2=O`, the Activity in data set [1] stood at 97%; in data set [2] it was 89%.
As to `O=C1c2ccc(Nc3ccc(F)cc3F)cc2CCc2ccc(OC[C@H](O)CO)cc21` [Skepinone-L], the Activity in data set [1] was found to be 100%; in data set [3], 88%; in [4], 95%; in [5] it was 107%; in [2], 84%; in data set [6], 100%. Also, the Activity amounted to 100% in data set [7]; 113% in [8]; 100% in data set [9]; 100% in data set [10]; 107% in data set [11]; 106% in data set [12]. The Activity in [13] was found to be 90%; in data set [14], 95%; in [15], 88%; in [16] it was 96%; in data set [17] it was 83%; in data set [18] it was 94%. Moreover, the Activity in data set [19] was 77%; in [20], 100%; in [22] it was 100%. The inhibition (commonly the share of the control response that was lost under treatment) at 10 µM on CYP2C19 worked out at 42%. For the same compound, the IC50 (commonly the concentration at which inhibition is half-maximal) in data set [21] is 860 nM.

Source of the values: ChEMBL document CHEMBL5696441 (Nat Chem Biol, 2011).
